Experimental data taken from patent US20030083336A1, “Phenylpiperazinyl derivatives” (H. Lundbeck A/S, priority 1999, published 2003).

How the values were obtained:
[1] = molecular target: T1, human cloned dopamine D4.2 receptors (Homo sapiens, UniProt P21917, DEL265-296); assay: Inhibition of the binding of 3H-YM-09151-2 to human dopamine D4 receptors; settings: [3H]YM-09151-2 0.06 nM, membranes of CHO-cells; read-out: D4-bind. IC50
T1 construct: expressed in transfected cells; host or cells: CHO cells
T1 sequence (P21917 with tags, fused parts or gaps DEL265-296): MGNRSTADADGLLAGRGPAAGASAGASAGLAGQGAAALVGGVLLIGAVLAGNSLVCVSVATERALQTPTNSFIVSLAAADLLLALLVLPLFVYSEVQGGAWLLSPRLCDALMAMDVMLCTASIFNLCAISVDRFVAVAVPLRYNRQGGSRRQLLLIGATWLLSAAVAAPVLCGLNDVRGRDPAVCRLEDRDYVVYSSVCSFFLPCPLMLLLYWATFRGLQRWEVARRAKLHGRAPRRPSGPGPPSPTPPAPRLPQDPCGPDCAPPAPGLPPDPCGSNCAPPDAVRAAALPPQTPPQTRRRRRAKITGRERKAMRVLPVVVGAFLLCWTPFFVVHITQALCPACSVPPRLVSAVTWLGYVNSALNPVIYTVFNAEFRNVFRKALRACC
Experimental: Inhibition of the Binding of ^3H-YM-09151-2 to Human Dopamine D4 Receptors
By this method the inhibition by drugs of the binding of [^3H]YM-09151-2 (0.06 nM) to membranes of human cloned dopamine D4.2 receptors expressed in CHO-cells is determined in vitro. Method modified from NEN Life Science Products, Inc., technical data certificate PC2533-10/96. The results are given in the following Table 1 as IC50-values or as percent inhibition of the binding of ^3H-YM-09151 -2 at the concentration of the test compound indicated.

[2] = molecular target: T2, human cloned dopamine D3 receptors (Homo sapiens, UniProt P35462); assay: Inhibition of the binding of [3H]-Spiperone to human D3 receptors; settings: [3H]Spiperone 0.3 nM, membranes of CHO-cells; read-out: D3-bind. IC50
T2 construct: expressed in transfected cells; host or cells: CHO cells
T2 sequence (P35462 whole entry): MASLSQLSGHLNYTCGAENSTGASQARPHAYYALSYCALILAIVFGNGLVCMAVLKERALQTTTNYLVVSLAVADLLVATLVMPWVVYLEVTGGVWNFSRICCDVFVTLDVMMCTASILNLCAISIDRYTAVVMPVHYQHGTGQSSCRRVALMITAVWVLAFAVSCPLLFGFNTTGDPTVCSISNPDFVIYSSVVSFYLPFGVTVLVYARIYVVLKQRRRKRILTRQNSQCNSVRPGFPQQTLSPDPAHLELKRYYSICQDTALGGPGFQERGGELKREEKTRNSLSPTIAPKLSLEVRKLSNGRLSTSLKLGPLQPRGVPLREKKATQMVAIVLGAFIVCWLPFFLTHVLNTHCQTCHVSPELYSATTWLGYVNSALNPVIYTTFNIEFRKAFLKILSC
Experimental: Inhibition of the Binding of [^3H]-Spiperone to Human D3 Receptors
By this method the inhibition by drugs of the binding [^3H]Spiperone (0.3 nM) to membranes of human cloned dopamine D3 receptors expressed in CHO-cells is determined in vitro. Method modified from R. G. MacKenzie et al. Eur. J. Pharm.-Mol. Pharm. Sec. 1994, 266, 79-85. The results are given in the following Table 1 as IC50-values or as percent inhibition of the binding of ^3H-Spiperone at the concentration of the test compound indicated.

[3] = molecular target: T3, D4 receptor (Homo sapiens, UniProt P21917); settings: various in vitro efficacy assays; cited from earlier work
T3 sequence (P21917 1-419): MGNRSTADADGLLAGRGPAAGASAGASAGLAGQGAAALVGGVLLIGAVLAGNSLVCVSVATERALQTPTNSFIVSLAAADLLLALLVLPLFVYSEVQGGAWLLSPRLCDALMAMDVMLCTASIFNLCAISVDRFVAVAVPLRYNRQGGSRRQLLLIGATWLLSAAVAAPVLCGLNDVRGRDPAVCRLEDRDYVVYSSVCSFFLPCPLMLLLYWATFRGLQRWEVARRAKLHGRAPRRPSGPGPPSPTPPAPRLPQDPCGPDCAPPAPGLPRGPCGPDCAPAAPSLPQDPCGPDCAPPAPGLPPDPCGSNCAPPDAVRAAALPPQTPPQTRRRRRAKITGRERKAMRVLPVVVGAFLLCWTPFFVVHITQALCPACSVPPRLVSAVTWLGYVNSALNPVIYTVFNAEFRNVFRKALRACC

Row | Compound | IC50 [1] | IC50 [2] | melting point | Functional activity at D4 receptor (literature) [3]
1 | Cc1c(N2CCOCC2)cccc1N1CCN(CCCCc2c[nH]c3ccccc23)CC1 [Compound 1c, 1-[2-methyl-3-(morpholin-4-yl)phenyl]-4-[4-(1H-indol-3-yl)butyl]piperazine] | 15 nM | 130 nM | 111 to 113 °C | –
2 | Cc1c(N2CCOCC2)cccc1N1CCN(CCCCc2c[nH]c3ccc(F)cc23)CC1 [Compound 1e, 1-[2-metlyl-3-(morpholin-4-yl)phenyl]-4-[4-(5-fluoro-1H-indol-3-yl)butyl]piperazine] | 14 nM | 63 nM | 112 to 114 °C | –
3 | CC(C)Oc1cccnc1N(C)C1CCN(Cc2ccccc2)CC1 [Compound U-101958] | – | – | – | partial D4 receptor agonists
